Assay results published in paper PMC6010129, “Evaluation of sulphonamide derivatives acting as inhibitors of human carbonic anhydrase isoforms I, II and Mycobacterium tuberculosisβ-class enzyme Rv3273” (Journal of Enzyme Inhibition and Medicinal Chemistry, 2018).

Assays:
mtCA 3 = molecular target: T1, mtCA 3 (Mycobacterium tuberculosis, UniProt P96878); experiment: biochemical; design: stopped-flow CO2 hydration assay, phenol red absorbance at 557 nm, 15 min pre-incubation, Ki by Cheng-Prusoff
T1 construct: beta-class carbonic anhydrase
Method: An Sx.18Mv-R Applied Photophysics (Oxford, UK) stopped-flow instrument has been used to assay the catalytic activity of various CA isozymes for CO2 hydration reaction. Phenol red (at a concentration of 0.2 mM) was used as indicator, working at the absorbance maximum of 557 nm, with 10 mM Hepes (pH 7.5) or 10 mM Tris (pH 8.5) as buffers, and 0.1 M Na2SO4 (for maintaining constant ionic strength, which is not inhibitory against these enzymes), following the CA-catalysed CO2 hydration reaction for a period of 10 s at 25 °C. The CO2 concentrations ranged from 1.7 to 17 mM for the determination of the kinetic parameters and […]. For each inhibitor at least six traces of the initial 5–10% of the reaction have been used for determining the initial rate. The uncatalysed rates were determined in the same manner and subtracted from the total observed rates. Stock solutions of inhibitors (10 mM) were prepared in distilled-deionised […] to 1 nM using the assay buffer. Inhibitor and enzyme solutions were pre-incubated together for 15 min (standard assay at room temperature) prior to assay, in order to allow for the formation of the enzyme–inhibitor complex. The inhibition constant (KI), was obtained by considering the classical Michaelis–Menten equation and the Cheng-Prusoff algorithm by using non-linear least squares fitting as reported earlier. The compounds 5 and 6 reported here were investigated as inhibitors of three CAs involved in crucial physiologic processes and known to act as drug targets, i.e. the human (h) isoforms hCA I and II (belonging to the α-CA class) and the bacterial enzyme mtCA3 from Mycobacterium tuberculosis (a β-class CA) (Table 3). Acetazolamide (AAZ), a clinically used sulphonamide has been employed as standard inhibitor in the assay.

hCA II = molecular target: T2, hCA II (Homo sapiens, UniProt P00918); experiment: stopped-flow CO2 hydrase assay; type: biochemical
T2 construct: gene CA2; cytosolic isoform
Source text: stopped-flow CO2 hydrase assay on hCA II

hCA I = molecular target: T3, hCA I (Homo sapiens, UniProt P00915); experiment: stopped-flow CO2 hydrase assay; type: biochemical
T3 construct: gene CA1; cytosolic isoform
Source text: stopped-flow CO2 hydrase assay on hCA I

T3 sequence (P00915 2-261): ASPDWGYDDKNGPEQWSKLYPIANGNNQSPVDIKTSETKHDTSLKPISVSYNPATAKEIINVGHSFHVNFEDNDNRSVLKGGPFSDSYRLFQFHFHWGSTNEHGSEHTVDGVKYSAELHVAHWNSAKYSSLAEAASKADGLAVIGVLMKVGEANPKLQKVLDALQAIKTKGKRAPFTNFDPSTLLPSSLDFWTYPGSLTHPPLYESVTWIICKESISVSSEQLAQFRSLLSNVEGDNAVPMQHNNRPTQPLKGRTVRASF
T1 sequence (P96878 entry or part of it): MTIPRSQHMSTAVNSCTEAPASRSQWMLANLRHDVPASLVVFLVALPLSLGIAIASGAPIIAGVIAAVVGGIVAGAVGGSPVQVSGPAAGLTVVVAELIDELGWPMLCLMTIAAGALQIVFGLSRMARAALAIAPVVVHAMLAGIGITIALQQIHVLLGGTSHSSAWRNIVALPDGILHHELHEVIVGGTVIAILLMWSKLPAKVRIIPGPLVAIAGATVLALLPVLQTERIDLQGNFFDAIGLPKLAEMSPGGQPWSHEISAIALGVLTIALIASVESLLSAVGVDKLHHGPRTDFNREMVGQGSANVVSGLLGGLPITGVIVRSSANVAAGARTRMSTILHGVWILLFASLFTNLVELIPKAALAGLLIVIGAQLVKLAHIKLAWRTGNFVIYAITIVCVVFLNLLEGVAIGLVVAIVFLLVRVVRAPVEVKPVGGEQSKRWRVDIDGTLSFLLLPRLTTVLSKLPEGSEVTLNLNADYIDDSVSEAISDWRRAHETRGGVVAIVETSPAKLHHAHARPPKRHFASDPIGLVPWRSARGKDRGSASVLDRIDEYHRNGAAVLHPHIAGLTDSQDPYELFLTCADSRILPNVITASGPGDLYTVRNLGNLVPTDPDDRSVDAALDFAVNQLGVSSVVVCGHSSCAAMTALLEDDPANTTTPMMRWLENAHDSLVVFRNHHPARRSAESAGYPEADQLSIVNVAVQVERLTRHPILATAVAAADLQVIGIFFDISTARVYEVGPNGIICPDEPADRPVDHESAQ

SMILES: COc1cc(/C=N/NC(=O)CNc2ccc(S(N)(=O)=O)cc2)cc(OC)c1OC [6i, 4-((2-Oxo-2-(2-(3,4,5-trimethoxybenzylidene) hydrazinyl)ethyl)amino) benzenesulphonamide]
- Ki (mtCA 3): 216 nM
- Ki (hCA II): 446 nM
- Ki (hCA I): 890 nM

SMILES: COc1ccc(C2CC(c3ccc(Cl)cc3)=NN2C(=O)CNc2ccc(S(N)(=O)=O)cc2)cc1OC (stereo not drawn) [5h, 4-((2-(3-(4-Chlorophenyl)-5-(3,4-dimethoxyphenyl)-4,5-dihydro-1H-pyrazol-1-yl)-2-oxoethyl)amino)benzenesulphonamide]
- Ki (mtCA 3): 186 nM
- Ki (hCA II): 424 nM
- Ki (hCA I): 280 nM

SMILES: CC1=NN(C(=O)CNc2ccc(S(N)(=O)=O)cc2)C(c2ccc(O)cc2)C1 (stereo not drawn) [5s, 4-((2(5-(4-Hydroxyphenyl)-3-methyl-4,5-dihydro-1H-pyrazol-1-yl)-2-oxoethyl)amino)benzenesulphonamide]
- Ki (mtCA 3): 265 nM
- Ki (hCA II): 73.6 nM
- Ki (hCA I): 738 nM

SMILES: NS(=O)(=O)c1ccc(NCC(=O)N2N=C(c3ccc(Cl)cc3)CC2c2ccc(F)cc2)cc1 (stereo not drawn) [5b, 4-((2-(3-(4-Chlorophenyl)-5-(4-fluorophenyl)-4,5-dihydro-1H-pyrazol-1-yl)-2-oxoethyl)amino) benzenesulphonamide]
- Ki (hCA II): 500 nM
- Ki (hCA I): 441 nM

SMILES: CC1=NN(C(=O)CNc2ccc(S(N)(=O)=O)cc2)C(c2ccc(C)cc2)C1 (stereo not drawn) [5o, 4-((2-(3-Methyl-5-(p-tolyl)-4,5-dihydro-1H-pyrazol-1-yl)-2-oxoethyl)amino)benzene sulphonamide]
- Ki (mtCA 3): 275 nM
- Ki (hCA II): 3460 nM
- Ki (hCA I): 898 nM

SMILES: NS(=O)(=O)c1ccc(NCC(=O)N/N=C/c2ccccn2)cc1 [6d, 4-((2-Oxo-2-(2-(pyridin-2-ylmethylene) hydrazinyl)ethyl)amino) benzenesulphonamide]
- Ki (mtCA 3): > 10000 nM
- Ki (hCA II): 418 nM
- Ki (hCA I): 316 nM

SMILES: COc1ccc(C2CC(C)=NN2C(=O)CNc2ccc(S(N)(=O)=O)cc2)cc1 (stereo not drawn) [5m, 4-((2-(5-(4-Methoxyphenyl)-3-methyl-4,5-dihydro-1H-pyrazol-1-yl)-2-oxoethyl)amino)benzenesulphonamide]
- Ki (mtCA 3): > 10000 nM
- Ki (hCA II): 5550 nM
- Ki (hCA I): 2370 nM

SMILES: COc1ccc(/C=N/NC(=O)CNc2ccc(S(N)(=O)=O)cc2)cc1OC [6e, 4-((2-(2-(3,4-Dimethoxybenzylidene)hydrazinyl)-2-oxoethyl)amino) benzenesulphonamide]
- Ki (hCA II): 758 nM
- Ki (hCA I): 1800 nM

SMILES: CC1=NN(C(=O)CNc2ccc(S(N)(=O)=O)cc2)C(c2ccc(N(C)C)cc2)C1 (stereo not drawn) [5t]
- Ki (mtCA 3): 1740 nM
- Ki (hCA II): 5150 nM
- Ki (hCA I): 842 nM

SMILES: NS(=O)(=O)c1ccc(NCC(=O)N/N=C/c2ccc(O)cc2)cc1 [6g, 4-((2-(2-(4-Hydroxybenzylidene)hydrazinyl)-2-oxoethyl)amino) benzenesulphonamide]
- Ki (hCA II): 255 nM
- Ki (hCA I): 327 nM

SMILES: NS(=O)(=O)c1ccc(NCC(=O)N/N=C/c2ccccc2)cc1 [6a, 4-((2-(2-Benzylidenehydrazinyl)-2-oxoetehyl)amino) benzenesulphonamide]
- Ki (mtCA 3): > 10000 nM
- Ki (hCA II): 549 nM
- Ki (hCA I): 220 nM

SMILES: NS(=O)(=O)c1ccc(NCC(=O)N2N=C(c3ccc(Cl)cc3)CC2c2ccccc2Cl)cc1 (stereo not drawn) [5f, 4-((2-(3-(4-Chlorophenyl)-5-(2-chlorophenyl)-4,5-dihydro-1H-pyrazol-1-yl)-2-oxoethyl)amino)benzenesulphonamide]
- Ki (mtCA 3): 215 nM
- Ki (hCA II): 433 nM
- Ki (hCA I): 445 nM

SMILES: Cc1ccc(C2CC(c3ccc(Cl)cc3)=NN2C(=O)CNc2ccc(S(N)(=O)=O)cc2)cc1 (stereo not drawn) [5d, 4-((2-(3-(4-Chlorophenyl)-5-(4-methylphenyl)-4,5-dihydro-1H-pyrazol-1-yl)-2-oxoethyl)amino)benzenesulphonamide]
- Ki (mtCA 3): 175 nM
- Ki (hCA II): 426 nM
- Ki (hCA I): 93.4 nM

SMILES: NS(=O)(=O)c1ccc(NCC(=O)N2N=C(c3ccc(Cl)cc3)CC2c2ccncc2)cc1 (stereo not drawn) [5e, 4-((2-(3-(4-Chlorophenyl)-5-(pyridin-4-yl)-4,5-dihydro-1H-pyrazol-1-yl)-2-oxoethyl)amino) benzenesulphonamide]
- Ki (mtCA 3): 138 nM
- Ki (hCA II): 42.3 nM
- Ki (hCA I): 175 nM

SMILES: Cc1ccc(C=NNC(=O)CNc2ccc(S(N)(=O)=O)cc2)cc1 [6b, 4-((2-(2-(4-Methylbenzylidene) hydrazinyl)-2-oxoethyl)amino)benzene sulphonamide]
- Ki (mtCA 3): > 10000 nM
- Ki (hCA II): 914 nM
- Ki (hCA I): 266 nM

SMILES: NS(=O)(=O)c1ccc(NCC(=O)N2N=C(c3ccc(Cl)cc3)CC2c2c[nH]c3ccccc23)cc1 (stereo not drawn) [5k, 4-((2-(3-(4-Chlorophenyl)-5-(1H-indol-3-yl)-4,5-dihydro-1H-pyrazol-1-yl)-2-oxoethyl)amino)benzenesulphonamide]
- Ki (mtCA 3): 127 nM
- Ki (hCA II): 392 nM
- Ki (hCA I): 440 nM

SMILES: NS(=O)(=O)c1ccc(NCC(=O)N2N=C(c3ccc(Cl)cc3)CC2c2cccs2)cc1 (stereo not drawn) [5i, 4-((2-(3-(4-Chlorophenyl)-5-(thiophen-2-yl)-4,5-dihydro-1H-pyrazol-1-yl)-2-oxoethyl)amino)benzenesulphonamide]
- Ki (mtCA 3): 233 nM
- Ki (hCA II): 373 nM
- Ki (hCA I): 276 nM

SMILES: NS(=O)(=O)c1ccc(NCC(=O)N2N=C(c3ccc(Cl)cc3)CC2c2ccccc2O)cc1 (stereo not drawn) [5g, 4-((2-(3-(4-Chlorophenyl)-5-(2-hydroxyphenyl)-4,5-dihydro-1H-pyrazol-1-yl)-2-oxoethyl)amino)benzenesulphonamide]
- Ki (mtCA 3): 147 nM
- Ki (hCA II): 578 nM
- Ki (hCA I): 174 nM

SMILES: NS(=O)(=O)c1ccc(NCC(=O)N2N=C(c3ccc(Cl)cc3)CC2c2ccc(Br)cc2)cc1 (stereo not drawn) [5c, 4-((2-(3-(4-Chlorophenyl)-5-(4-bromophenyl)-4,5-dihydro-1H-pyrazol-1-yl)-2-oxoethyl)amino) benzenesulphonamide]
- Ki (mtCA 3): 732 nM
- Ki (hCA II): 2850 nM
- Ki (hCA I): 634 nM

SMILES: COc1cc(/C=N/NC(=O)CNc2ccc(S(N)(=O)=O)cc2)cc(OC)c1O [6h, 4-((2-(2-(4-Hydroxy-3,5-dimethoxybenzylidene)hydrazinyl)-2-oxoethyl)amino) benzenesulphonamide]
- Ki (mtCA 3): 2000 nM
- Ki (hCA II): 483 nM
- Ki (hCA I): 292 nM

SMILES: CC1=NN(C(=O)CNc2ccc(S(N)(=O)=O)cc2)C(c2ccccc2O)C1 (stereo not drawn) [5r, 4-((2-(5-(2-Hydroxyphenyl)-3-methyl-4,5-dihydro-1H-pyrazol-1-yl)-2-oxoethyl)amino)benzenesulphonamide]
- Ki (mtCA 3): 1590 nM
- Ki (hCA II): 83.1 nM
- Ki (hCA I): 721 nM

SMILES: CC1=NN(C(=O)CNc2ccc(S(N)(=O)=O)cc2)C(c2ccccc2)C1 (stereo not drawn) [5l, 4-((2-(3-Methyl-5-phenyl-4,5-dihydro-1H-pyrazol-1-yl)-2-oxoethyl)amino) benzene sulphonamide]
- Ki (mtCA 3): 1580 nM
- Ki (hCA II): 810 nM
- Ki (hCA I): 760 nM

SMILES: CC1=NN(C(=O)CNc2ccc(S(N)(=O)=O)cc2)C(c2ccccc2Cl)C1 (stereo not drawn) [5q, 4-((2-(5-(2-Chlorophenyl)-3-methyl-4,5-dihydro-1H-pyrazol-1-yl)-2-oxoethyl)amino)benzenesulphonamide]
- Ki (mtCA 3): 623 nM
- Ki (hCA II): 648 nM
- Ki (hCA I): 742 nM

SMILES: COc1ccc(/C=N/NC(=O)CNc2ccc(S(N)(=O)=O)cc2)cc1 [6f, 4-((2-(2-(4-Methoxybenzylidene) hydrazinyl)-2-oxoethyl)amino) benzenesulphonamide]
- Ki (mtCA 3): 2130 nM
- Ki (hCA II): 703 nM
- Ki (hCA I): 648 nM

SMILES: NS(=O)(=O)c1ccc(NCC(=O)N2N=C(c3ccc(Cl)cc3)CC2c2ccccc2)cc1 (stereo not drawn) [5a, 4-((2-(3-(4-Chlorophenyl)-5-phenyl-4,5-dihydro-1H-pyrazol-1-yl)-2-oxoethyl)amino) benzenesulphonamide]
- Ki (mtCA 3): 1800 nM
- Ki (hCA II): 282 nM
- Ki (hCA I): 306 nM

SMILES: NS(=O)(=O)c1ccc(NCC(=O)N2N=C(c3ccc(Cl)cc3)CC2c2c3ccccc3cc3ccccc23)cc1 (stereo not drawn) [5j, 4-((2-(5-(Anthracen-9-yl)-3-(4-chlorophenyl)-4,5-dihydro-1H-pyrazol-1-yl)-2-oxoethyl)amino)benzenesulphonamide]
- Ki (mtCA 3): 157 nM
- Ki (hCA II): 2020 nM
- Ki (hCA I): 91.8 nM

SMILES: CC1=NN(C(=O)CNc2ccc(S(N)(=O)=O)cc2)C(c2ccc(F)cc2)C1 (stereo not drawn) [5p, 4-((2-(5-(4-Fluorophenyl)-3-methyl-4,5-dihydro-1H-pyrazol-1-yl)-2-oxoethyl)amino)benzenesulphonamide]
- Ki (mtCA 3): 250 nM
- Ki (hCA II): 903 nM
- Ki (hCA I): 665 nM

SMILES: CC1=NN(C(=O)CNc2ccc(S(N)(=O)=O)cc2)C(c2cccs2)C1 (stereo not drawn) [5u, 4-((2-(3-Methyl-5-(thiophen-2-yl)-4,5-dihydro-1H-pyrazol-1-yl)-2-oxoethyl)amino)benzenesulphonamide]
- Ki (mtCA 3): 1450 nM
- Ki (hCA II): 126 nM
- Ki (hCA I): 798 nM

SMILES: CC1=NN(C(=O)CNc2ccc(S(N)(=O)=O)cc2)C(c2ccc(Cl)cc2)C1 (stereo not drawn) [5n, 4-((2-(5-(4-Chlorophenyl)-3-methyl-4,5-dihydro-1H-pyrazol-1-yl)-2-oxoethyl)amino)benzenesulphonamide]
- Ki (mtCA 3): 1290 nM
- Ki (hCA II): 944 nM
- Ki (hCA I): 835 nM
